Test results as given in article PMC5451472, “Novel Locally Active Estrogens Accelerate Cutaneous Wound Healing-Part 2” (Scientific Reports, 2017).
pEC50: −log10 of the molar value.

Experiments:
MITO-Luc mice [1] = test: Macrophage count (Iba1 immunohistochemistry) around the wound site; assay type: in vivo, mouse; details: 200 µg/kg s.c., 72 hours after treatment
Description: To better understand whether the healing effect of 1e could be attributed to its anti-inflammatory action, at the end of in vivo imaging (72 hours after treatments) the tissue surrounding the wound was dissected and subjected immunohistochemical analysis using the pan macrophage marker Iba1. […] This observation confirmed that the estrogenic compounds were able to regulate the immune response at local level.
In particular, the criteria for the assignation of granulations value are: 1 = wound bed partially covered with granulation tissue; 2 = thin granulation over the whole wound bed; 3 = thick granulation over the whole wound bed. Evaluation of macrophages was done through a specific antibody and digital image analysis: 4 µm sections from each wound healing sample were immunostained with primary rabbit […] antibody against Iba1 antigen (Wako; #019-19741) to assess the number of macrophages.
The number of positive cells were counted using the ImageJ analysis program (http://rsb.info.nih.gov/ij/) in 400x microscopic fields selected at the periphery of the wound area.

ERs = target: T1, ERs (Homo sapiens, UniProt P03372); test: ER transactivation assay in ERE-Luc B17 cells (luciferase reporter); assay type: cell-based
T1 construct: endogenous in cells; host or cells: MCF-7, clone ERE-Luc B17 (only the luciferase reporter is transfected)
T1 sequence (P03372 1-595): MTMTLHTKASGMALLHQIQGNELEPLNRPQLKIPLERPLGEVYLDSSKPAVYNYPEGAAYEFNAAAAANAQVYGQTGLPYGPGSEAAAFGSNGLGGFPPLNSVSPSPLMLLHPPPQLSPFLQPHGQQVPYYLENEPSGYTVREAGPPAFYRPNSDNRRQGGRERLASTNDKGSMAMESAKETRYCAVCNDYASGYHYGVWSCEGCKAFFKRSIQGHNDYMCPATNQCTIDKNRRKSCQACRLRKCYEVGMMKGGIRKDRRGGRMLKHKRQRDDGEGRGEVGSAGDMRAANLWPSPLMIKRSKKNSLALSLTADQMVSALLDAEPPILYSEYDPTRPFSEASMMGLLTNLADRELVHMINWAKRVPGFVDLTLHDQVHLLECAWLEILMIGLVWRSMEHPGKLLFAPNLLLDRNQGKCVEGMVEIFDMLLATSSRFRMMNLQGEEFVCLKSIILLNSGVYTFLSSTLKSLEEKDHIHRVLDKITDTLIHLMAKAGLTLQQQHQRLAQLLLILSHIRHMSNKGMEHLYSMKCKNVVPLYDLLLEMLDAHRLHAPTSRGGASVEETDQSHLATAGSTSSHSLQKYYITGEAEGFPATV
Description: The ability of the novel compounds to transcriptionally activate ERs was tested in ERE-Luc B 17 cells, a clone of the breast cancer cell line MCF-7 stably transfected with a reporter constituted by the luciferase gene driven by an estrogen-regulated synthetic promoter previously generated and tested in our laboratories.
Cells were split twice a week by seeding 2 × 10^6 cells in 100 mm diameter Petri (Corning) dishes.
After 24 h cells were rinsed once with PBS before preparing the protein extract for the determination of luciferase content. Each experiment was carried out in duplicate.
(§1) Luciferase enzymatic activity was measured in cells or selected tissue homogenates by a luminometer (Glomax™96 microplate luminometer; Promega) using Promega standard luciferin (Beetle Luciferin Potassium Salt) and expressed as Relative Light Units over 10 sec/μg protein (RLU/μg protein). Proteins concentrations were measured by Bradford.
Analysis of transactivation data and calculation of EC50 values were performed by means of sigmoidal dose-response (variable slope) using PRISM5 software (GraphPad Software Inc.).

[2] = system: ER transcriptional activity; test: Ex vivo BLI and luciferase enzymatic assay in organs of ERE-Luc mice; parameters: species or system mouse; details: 200 µg/kg s.c., 6 hours after treatment
Description: We next examined photon emission in a series of organs excised from the mice euthanized at 6 hours after treatment by measuring photon emission with the CCD camera (Fig. 6a) and by the more sensitive enzymatic assay in tissue extracts of each organ (Fig. 6b).
The selected organs were dissected from the animals who had received luciferine 20 min before euthanasia. The tissues were immediately subjected to ex vivo imaging session of 5 minutes. Photon emission was quantified with the Living Image Software (Caliper, PerkinElmer company) for each tissue and expressed as p/s/cm2/sr.
as §1

MITO-Luc mice [3] = test: Wound area measurement in MITO-Luc mice; assay type: in vivo, mouse; details: 200 µg/kg s.c., 72 hours after treatment (vehicle 50%)
Description: To investigate to which extent the increased proliferation observed after the pharmacological treatments was functional to the healing process, we measured the size of the wound (Fig. 9a).
(§2) Ovariectomy was carried out as previously described. Wound healing was done after shaving by VEET depilatory cream a day before the treatment. The 1 cm full-thickness incisional wound was made through the skin and panniculus carnosus muscle of ovariectomized MITO-luc using a surgical scalpel (blade n°10, carbon steel, Swann-Morton Ltd). Round full-thickness wounds were done by cutting out a section of full-thickness skin (around 9 mm in diameter) using fine scissors on the dorsal skin of the isoflurane-anesthetized animal. For in vivo treatment the compounds were administered onto the subcutaneous area surrounding the wound by multiple subcutaneous injection, immediately after the generation of the wound.

MITO-Luc mice [4] = test: Granulation tissue histoscore of round full-thickness wound at day 10; assay type: in vivo, mouse; details: 200 µg/kg s.c., day 10, round wound, scale 1-3 (vehicle 0.3)
Description: The measure of photon emission from the wound area was done for several days after the wounding. 3 days after treatment the bioluminescent signal is highest (Fig. 10 Panel a).
as §2
At the time of euthanasia, the wounds with surrounding healthy tissue were excised, distended on a strip of hard paper and fixed in 10% buffered formalin (pH = 6). […] For histopathological examination 4 µm sections were routinely stained with Hematoxylin-Eosin (HE) and evaluated under a light microscope. The degree of re-epithelialization, the type and amount of granulation tissue and inflammation, which are the main features of wound healing, were scored separately. […]

SMILES: CCCCOC(=O)CCC#C[C@]1(O)CC[C@H]2[C@@H]3CCc4cc(O)ccc4[C@H]3CC[C@@]21C [1e, 3,17β-Hydroxy-17α-(4′carbobutoxy-1′-butyn-1′-yl)estra-1,3,5-(10)-triene]
- number of macrophages (Iba1 positive) in the wound area lower than in controls (MITO-Luc mice [1]): 25%
- pEC50 (ERs; ERE-Luc B17 cells (MCF-7 clone), 24 h, luciferase activity, sigmoidal dose-response, read-out: EC50 (transactivation potency)): 8.89
- fold induction at 10 µM (ERs; ERE-Luc B17 cells, 10^-5 M of compound respect to vehicle): 2.6
- bioluminescence in excised organs (ex vivo BLI, enzymatic luciferase assay) [2]: did not induce bioluminescence in any of the organs investigated
- wound area reduction (MITO-Luc mice [3]): 73%
- Score of granulation tissue (fibrosis), histoscore mean (MITO-Luc mice [4]): 1.5
